The text below walks through data of PubChem BioAssay AID651569 (Sanford-Burnham Center for Chemical Genomics, 2012).

Calls of active or inactive are those of the source. The rule behind the calls is not given here.

What is called IC50 is the concentration needed to halve the response being measured.

The assay concerns luminescent cytotoxicity (cell viability) counter-screen. Briefly: cytotoxicity of Gli-SUFU antagonist hits, dose response, cytotoxicity control for Gli-SUFU antagonist project, cell-based, luminescence, uHTS hits (AID 651569).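 Note: compound exposure lasted overnight before the viability readout.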
As to `CCN1CCCC1CNc1ncnc2c1[nH]c1ccc(Cl)cc12` (configuration not stated), the IC50 was > 20 µM (inactive). Then `COc1ccc(NS(=O)(=O)c2ccc(N3CCN(CCO)CC3)c([N+](=O)[O-])c2)cc1`, with > 20 µM (inactive); and `CCOC(=O)CSc1c(-c2cccs2)[nH]c2ccccc12`, with > 20 µM (inactive); and `CC(=O)c1cccc(NS(=O)(=O)c2ccc(-c3cnc(C4CC4)o3)cc2)c1`, with 6.78 µM. For the compound `CC(C)=CCC/C(C)=C/CNC(=O)C[C@H]1C[C@H](C(=O)N2CCOCC2)[C@@]2(C)c3[nH]c4cc(CCC(=O)N(C)C)ccc4c3CCN2C1=O`, the IC50 is > 20 µM (inactive). With `Cc1ccc(-c2csc(NC(=O)c3c(C)noc3C)n2)s1` the figure was > 20 µM (inactive); with `Cc1nc2sccn2c1-c1csc(NCc2ccccc2)n1`, > 20 µM (inactive). Consider `COCCNc1nc2c(c(=O)n(C)c(=O)n2C)n1Cc1cccc(C(F)(F)F)c1`, for which the IC50 was 12.4 µM. Then `CC(C)CCOC(=O)C[N+](C)(C)CCOC1CC2CCC1(C)C2(C)C` (configuration not stated), with > 20 µM (inactive). Then `Cc1cc(Br)c(S(=O)(=O)NCc2ccncc2)cc1C`, with > 20 µM (inactive); and `Cc1cc(Nc2ccc([N+](=O)[O-])cc2)c2ccccc2n1`, with > 20 µM (inactive). For `CCOc1ccc(NC(=S)NNc2ccnc3cc(Cl)ccc23)cc1`, the IC50 is > 20 µM (inactive). With `O=C(N/N=C/c1cc2ccccc2nc1Cl)[C@H]1C[C@@H]1c1ccccc1` the figure was > 20 µM (inactive); with `c1ccc2c(c1)OCC(CNc1ncnc3sccc13)O2` (configuration not stated), > 20 µM (inactive). With `O=C(C1CCCCC1)N1CCN(c2ccnc3cc(Cl)ccc23)CC1` the figure was > 20 µM (inactive); with `C[n+]1c2n(c3ccccc31)N=C(c1ccccc1)CS2`, > 20 µM (inactive); with `CCOC(CN=c1nc(N(C)C)ss1)OCC`, 18.6 µM. With `CCc1ccccc1NC(=S)N=Nc1c(O)n(C)c2ccc(S(=O)(=O)N3CCOCC3)cc12` the figure was > 20 µM (inactive); with `CCC(C(=O)NCCC(C)C)n1ccc2cc(S(=O)(=O)N3CCCCC3)ccc21` (configuration not stated), > 20 µM (inactive); with `COc1ccc(Nc2nc(N3CCOCC3)nc(N3CCOCC3)n2)c(OC)c1`, > 20 µM (inactive). In the case of `CC[N+]1=C(C)C(C)(C)c2cc(C)ccc21`, the IC50 is > 20 µM (inactive). With `CC(=O)c1cn(CCOc2ccccc2C)c2ccccc12` the figure was > 20 µM (inactive); with `CCC(C)CCN1C(N(C)C)=NC[C@@H]1CC(C)C` (some centres not stated), > 20 µM (inactive); with `COc1ccc(NS(=O)(=O)c2cccc(NC(=O)c3ccc(S(=O)(=O)N4CCCCCC4)cc3)c2)cc1`, > 20 µM (inactive). In the case of `COc1cc(NS(=O)(=O)c2ccc(C)cc2C)cc(OC)c1OC`, the IC50 was 16 µM. Then `Cc1nn(-c2ccc(NC(=O)c3ccncc3)cc2)c(C)c1Cl`, with > 20 µM (inactive); and `Cc1ccsc1CNc1ncnc2ccc(-c3c(C)noc3C)cc12`, with > 20 µM (inactive); and `CCn1cc[n+](C)c1P(c1ccccc1)c1ccccc1`, with > 20 µM (inactive). With `CCc1cc(C(=O)NC2CCCN(Cc3ccccc3F)C2)n(C)n1` (configuration not stated) the figure was > 20 µM (inactive). For the compound `Cn1c(=O)c2c(nc(NCc3ccco3)n2Cc2ccc(Cl)cc2Cl)n(C)c1=O`, the IC50 was > 20 µM (inactive). Consider `c1ccc(Cn2c(-c3ccccc3)c[n+]3c2SCCC3)cc1`, for which the IC50 is > 20 µM (inactive). As for `Clc1ccc(-n2cc(-c3ccc(Br)cc3)[n+]3c2CCCCC3)cc1`, the IC50 was > 20 µM (inactive).

On to `Cc1nc2cc(N3CCN(C)CC3)c(NC(=O)Cc3ccccc3)cc2c(=O)n1Cc1ccccc1`, for which the IC50 is > 20 µM (inactive). As for `CNc1nc(NCc2ccccc2)c2ccccc2n1`, the IC50 is > 20 µM (inactive). As for `CC(=O)c1ccc(N2CCN(c3ccc(C(F)(F)F)cn3)CC2)cc1`, the IC50 was > 20 µM (inactive). For `COc1cc(C(=O)NC2CCN(C)CC2)ccc1Nc1ncc2c(n1)N(Cc1ccccc1)CCC(=O)N2C`, the IC50 was > 20 µM (inactive).

For the compound `Clc1ccc(-c2cn(-c3ccccc3)c3[n+]2CCS3)cc1`, the IC50 is > 20 µM (inactive). With `CC1CCCCC1NS(=O)(=O)c1ccc(S(=O)(=O)NCc2ccncc2)cc1` (configuration not stated) the figure was > 20 µM (inactive); with `CCCCN(C(C)=O)c1ccc2c(c1)C1CC2CCN1C(=O)OCc1ccccc1` (configuration not stated), 8.16 µM; with `Cc1cccc(C)c1NC(=S)N(CCN1CCCCCC1)Cc1ccco1`, > 20 µM (inactive).

As to `Cc1nn(Cc2noc(C(=O)NC3CCC(C)CC3)n2)c(C)c1Br` (configuration not stated), the IC50 was > 20 µM (inactive). With `Cc1nc2ccccc2n1Cc1ccc(Br)cc1` the figure was > 20 µM (inactive); with `COc1ccc(C2=[N+](C)CCn3cccc32)c(OC)c1`, > 20 µM (inactive). Then `CC(=O)c1c(C)[nH]c(C(=O)OCC(=O)Nc2ccc(C)cc2[N+](=O)[O-])c1C`, with 18.9 µM; and `COc1ccc(-c2c[n+](CC(=O)c3ccccc3)c3n2CCCCC3)cc1`, with > 20 µM (inactive). With `CCCCOc1ncnc2c1[nH]c1ccc(F)cc12` the figure was > 20 µM (inactive); with `Cc1ccc(S(=O)(=O)N2CCN(C(=O)C3CCN(c4ncnc5sc(C)c(C)c45)CC3)CC2)c(C)c1`, > 20 µM (inactive); with `CC(=O)c1c(C)[nH]c(C(=O)OCC(=O)Nc2cccc(S(=O)(=O)N3CCCC3)c2)c1C`, > 20 µM (inactive). Turning to `CCOC(=O)c1c(NC(=O)C(=O)N/N=C/c2ccccc2O)sc2c1CCCCC2`, the half-inhibitory concentration (IC50) was 19 µM. With `CCOC(=O)c1c(NC(=O)COc2cccc3c2CCN(C)C3=O)sc2c1CCC2` the figure was > 20 µM (inactive); with `O=C(Cn1cc(C(=O)c2ccco2)c2ccccc21)Nc1ccccc1F`, > 20 µM (inactive). In the case of `Cc1cccnc1CN1CCN(C(=O)c2cc(COc3ccc4ncccc4c3)on2)CC1`, the IC50 is > 20 µM (inactive). Turning to `CCc1ccc(CN(C)C(=O)c2cc(COc3cccc4cnccc34)on2)cc1`, the IC50 was > 20 µM (inactive).

`CCn1c(C)nc2cc(-c3nnc(-c4c(-c5ccccc5)noc4C)o3)ccc21`: the IC50 is > 20 µM (inactive). Then `CCOC(=O)c1c(NC(=O)COc2ncnc3ccccc23)sc(C(C)=O)c1C`, with > 20 µM (inactive); and `O=C(C[C@H]1C/C=C\C[C@H](NC(=O)OCC2c3ccccc3-c3ccccc32)C(=O)OC[C@@H]2CCCN2C1=O)N[C@H](CO)Cc1ccccc1`, with > 20 µM (inactive). Take `CCN(CC)S(=O)(=O)c1ccc(C)c(NC(=S)N2CCN(Cc3ccc4c(c3)OCO4)CC2)c1`: the IC50 is > 20 µM (inactive). Consider `O=C(c1cccc(S(=O)(=O)N2CCN(c3ccccc3)CC2)c1)N1CCCC(C(F)(F)F)C1` (configuration not stated), for which the IC50 was > 20 µM (inactive).

As for `O=C(Nc1cc(N2CCCCC2)ncn1)c1ccccc1`, the IC50 was > 20 µM (inactive). As to `CCOc1ccc(-c2nc(CSCC(=O)NC3CC3)c(C)o2)cc1`, the IC50 was > 20 µM (inactive). Then `N=c1c(-c2nc3ccccc3[nH]2)cc(C(=O)c2ccco2)nn1-c1ccccc1`, with > 20 µM (inactive); and `CCNc1nc(CN2CCCCC2)nc2scc(-c3ccccc3)c12`, with 15.6 µM.
